Data reported in US11253525B2, “Inhibitors of indoleamine 2,3-dioxygenase and methods of their use” (BRISTOL-MYERS SQUIBB COMPANY, priority 2018, dated 2022).
Read-outs that look alike come from different tables or passages of the source.

Assays:
human IDO1 = molecular target: T1, human IDO1 (Homo sapiens, UniProt P14902); test: HEK293 cell-based indoleamine 2,3-dioxygenase (IDO) assay; settings: human IDO1/HEK293 cells, 20 hours
T1 construct: expressed in transfected cells
Description: Assessment of Inhibitor Activity in HEK293 Cell-Based Indoleamine 2,3-Dioxygenase (IDO) Assay
HEK293 cells were transfected with a pCDNA-based mammalian expression vector harboring human IDO1 cDNA (NM 002164.2) by electroporation. They were cultured in medium (DMEM with 10% FBS) containing 1 mg/ml G418 for two weeks. Clones of HEK293 cells that stably expressed human IDO1 protein were selected and expanded for IDO inhibition assay.
The human IDO1/HEK293 cells were seeded at 10,000 cells per 50 μL per well with RPMI/phenol red free media contains 10% FBS in a 384-well black wall clear bottom tissue culture plate (Matrix Technologies LLC) 100 nL of certain concentration of compound was then added to each well using ECHO liquid handling systems. The cells were incubated for 20 hours in 37° C. incubator with 5% CO2.
The compound treatments were stopped by adding trichloroacetic acid (Sigma-Aldrich) to a final concentration at 0.2%. The cell plate was further incubated at 50° C. for 30 minute. The equal volume supernatant (20 μL) and 0.2% (w/v) Ehrlich reagent (4-dimethylaminobenzaldehyde, Sigma-Aldrich) in glacial acetic acid were mixed in a new clear bottom 384-well plate. This plate was then incubated at room temperature for 30 minute. The absorbance at 490 nm was measured on Envision plate reader.
Compound IC50 values were calculated using the counts of 500 nM of a reference standard treatment as one hundred percent inhibition, and counts of no compound but DMSO treatment as zero percent inhibition.

[1] = molecular target: T2, indoleamine 2,3-dioxygenase (IDO) (Homo sapiens, UniProt P14902); test: HeLa cell-based indoleamine 2,3-dioxygenase (IDO) assay, kynurenine production; settings: HeLa cells, IFNγ 25 ng/mL, 48 hour incubation
T2 construct: replaced with media containing IFNγ (#285-IF/CF, R&D Systems) at a final concentration of 25 ng/mL; endogenous in cells; host or cells: HeLa (ATCC CCL-2), IFN-gamma stimulated
T2 sequence (P14902 whole entry): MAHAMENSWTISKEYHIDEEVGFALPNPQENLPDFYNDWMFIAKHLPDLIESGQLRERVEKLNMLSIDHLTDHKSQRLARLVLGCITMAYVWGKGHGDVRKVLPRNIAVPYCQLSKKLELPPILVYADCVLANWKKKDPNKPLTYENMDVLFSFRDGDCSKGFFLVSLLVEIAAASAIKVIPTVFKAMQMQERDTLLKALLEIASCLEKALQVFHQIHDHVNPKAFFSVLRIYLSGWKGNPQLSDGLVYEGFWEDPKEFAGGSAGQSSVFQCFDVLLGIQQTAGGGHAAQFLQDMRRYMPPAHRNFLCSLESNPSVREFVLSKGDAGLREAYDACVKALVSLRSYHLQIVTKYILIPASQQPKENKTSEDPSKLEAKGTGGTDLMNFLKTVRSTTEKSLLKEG
Description: Assessment of Inhibitor Activity in HeLa Cell-Based Indoleamine 23-Dioxygenase (IDO) Assay
Cells were maintained in a humidified incubator at 37° C. in 5% CO2.
IDO activity was assessed as a function of kynurenine production as follows: HeLa cells were seeded in a 96-well culture plate at a density of 5,000 cells/well and allowed to equilibrate overnight. […] A serial dilution of each test compound was added to the cells in a total volume of 200 μL of culture medium. After a further 48 hour incubation, 170 μL of supernatant was transferred from each well to a fresh 96-well plate. 12.1 μL of 6.1N trichloroacetic acid (#T0699, Sigma-Aldrich) was added to each well and mixed, followed by incubation at 65° C. for 20 minutes to hydrolyze N-formylkynurenine, the product of indoleamine 2,3-dioxygenase, to kynurenine. The reaction mixture was then centrifuged for 10 mins at 500×g to sediment the precipitate. 100 μL of the supernatant was transferred from each well to a fresh 96-well plate. […] Kynurenine concentrations were determined by measuring absorbance at 480 nm and calibrating against an L-kynurenine (#K8625, Sigma-Aldrich) standard curve using a SPECTRAMAX® M2e microplate reader (Molecular Devices). The percentage activity at each inhibitor concentration was determined and IC50 values assessed using nonlinear regression.

[2] = read-out: IDO1 HEK Human IC50 class (A < 50, B < 250, C < 2000)
[3] = read-out: IDO Hela IC50 class (A < 50, B < 250, C < 2000)

T1 sequence (P14902 whole entry): as above

Compound	IC50 [1, 3] [nM]	IC50 ([1]; read-out: IDO Hela IC50) [nM]	also measured
Cc1ccc(NC(=O)Nc2cc(OCC(=O)O)ccc2C(CC(C)C)CC(C)C)cc1 [Example 138, 2-(4-(2,6-Dimethylheptan-4-yl)-3-(3-(p-tolyl)ureido)phenoxy)acetic acid]	–	–	IC50 (human IDO1; read-out: IDO1 HEK Human IC50): 464 nM
CCO[C@H](c1ccc([C@@H](CC)CC(=O)O)cc1Nc1ccc(Cl)cc1)C(F)(F)F (stereo in doubt) [Example 23, (S)-3-(3-((4-chlorophenyl)amino)-4-((R)-1-ethoxy-2,2,2-trifluoroethyl)phenyl)pentanoic acid]	–	–	IC50 (human IDO1; read-out: IDO1 HEK Human IC50): 1 nM
CCO[C@H](c1ccc(F)cc1)c1cc(Nc2ccc3nc(C)sc3c2)cc([C@@H](CC)CC(=O)O)c1 (single isomer, unassigned) [Example 117]	–	–	IC50 (human IDO1; [2]): 250 to 2000 nM
CCO[C@H](c1ccc(F)cc1)c1cc(Nc2ccc(Cl)cc2)cc([C@@H](CC)CC(=O)O)c1 (single isomer, unassigned) [Example 113-2]	–	–	IC50 (human IDO1; read-out: IDO1 HEK Human IC50): 131 nM
CCOc1ncc(Nc2cc([C@@H](CC)CC(=O)O)ccc2C(C)(C)OCC)cn1 (single isomer, unassigned) [Example 6]	–	–	IC50 (human IDO1; [2]): 250 to 2000 nM
CCOC(C)(C)c1ccc([C@@H](CC)CC(=O)O)cc1NC(=O)Nc1ccc(C)cc1 (single isomer, unassigned) [Example 2]	–	–	IC50 (human IDO1; read-out: IDO1 HEK Human IC50): 224 nM; IC50 (human IDO1; [2]): 250 to 2000 nM
CCOC(C)(C)c1ccc([C@H](CC)CC(=O)O)cc1NC(=O)Nc1ccc(C)cc1 (single isomer, unassigned) [Example 1]	–	–	IC50 (human IDO1; [2]): 250 to 2000 nM
CCO[C@@H](c1ccc(F)cc1)c1cc(Nc2ccc3nc(C)sc3c2)cc([C@@H](CC)CC(=O)O)c1 (single isomer, unassigned) [Example 115]	–	–	IC50 (human IDO1; read-out: IDO1 HEK Human IC50): 1200 nM
CCO[C@@H](c1ccc([C@H](CC)CC(=O)O)cc1Nc1ccc(C#N)cc1)C(F)(F)F (single isomer, unassigned) [Example 37]	< 50	–	–
CC[C@H](CC(=O)O)c1ccc([C@H](OC)C(F)(F)F)c(Nc2cnc(C)nc2)c1 (single isomer, unassigned) [Example 94]	–	70	–
CCO[C@H](c1ccc([C@@H](CC)CC(=O)O)cc1Nc1cnc(OC)nc1)C(F)(F)F (single isomer, unassigned) [Example 22]	–	10	–
CCO[C@H](c1ccc([C@@H](CC)CC(=O)O)cc1Nc1cnc(OC)cn1)C(F)(F)F (single isomer, unassigned) [Example 25]	–	10	–
CCOc1ncc(Nc2cc([C@H](CC)CC(=O)O)ccc2[C@H](CC)C2CCOCC2)cn1 (single isomer, unassigned) [Example 125-2]	< 50	–	–
CC[C@H](CC(=O)O)c1ccc([C@H](OC)C(F)(F)F)c(Nc2cnc(C(F)(F)F)nc2)c1 (single isomer, unassigned) [Example 96]	–	10	–
CCO[C@H](c1ccc([C@@H](COC)CC(=O)O)cc1NC(=O)Nc1ccc(C)cc1)C(F)(F)F (single isomer, unassigned) [Example 60]	–	910	–
CC[C@H](CC(=O)O)c1ccc([C@@H](CC)N2CCOCC2)c(Nc2ccc(COC)nc2)c1 (relative stereo) [Example 121, (R)-3-(3-((6-(methoxymethyl)pyridin-3-yl)amino)-4-((R)-1-morpholinopropyl)phenyl)pentanoic acid]	–	30	–
CCO[C@H](c1ccc([C@H](CC)CC(=O)O)cc1Nc1cnc(COC)nc1)C(F)(F)F (single isomer, unassigned) [Example 16]	–	610	–
CCO[C@@H](c1ccc([C@H](CC)CC(=O)O)cc1NC(=O)Nc1ccc(C)cc1)C(F)(F)F (single isomer, unassigned) [Example 31]	–	20	–
CCO[C@H](c1ccc([C@@H](COC)CC(=O)O)cc1Nc1ccc(C#N)cc1)C(F)(F)F (single isomer, unassigned) [Example 65]	–	10	–
CC[C@@H](CC(=O)O)c1ccc([C@@H](CC)N2CCOCC2)c(Nc2ccc(OC(F)F)cn2)c1 (relative stereo) [Example 133, (S)-3-(3-((5-(difluoromethoxy)pyridin-2-yl)amino)-4-((R)-1-morpholinopropyl)phenyl)pentanoic acid]	250 to 2000	–	–

Compound	IC50 [1, 3] [nM]	IC50 ([1]; read-out: IDO Hela IC50) [nM]	also measured
(S)-3-(4-((S)-1-ethoxy-2,2,2-trifluoroethyl)-3-((4-fluorophenyl)amino)phenyl)pentanoic acid [Example 48]	< 50	–	–
CCO[C@H](c1ccc([C@H](COC)CC(=O)O)cc1Nc1ccc(C#N)c(F)c1)C(F)(F)F (single isomer, unassigned) [Example 55]	–	10	–
CCO[C@H](c1ccc([C@H](COC)CC(=O)O)cc1Nc1cnc(C)nc1)C(F)(F)F (single isomer, unassigned) [Example 59]	250 to 2000	–	–
CCOc1ncc(Nc2cc([C@H](CC)CC(=O)O)ccc2[C@@H](OC)C(F)(F)F)cn1 (single isomer, unassigned) [Example 91]	–	30	–
CCO[C@H](c1ccc([C@H](CC)CC(=O)O)cc1Nc1cnc(OC)nc1)C(F)(F)F (single isomer, unassigned) [Example 10]	–	20	–
CCOc1ncc(Nc2cc([C@@H](CC)CC(=O)O)ccc2[C@H](CC)N2CCOCC2)cn1 (single isomer, unassigned) [Example 118-3]	< 50	–	–
CCOc1ncc(Nc2cc([C@@H](COC)CC(=O)O)ccc2[C@@H](CC)N2CCOCC2)cn1 (single isomer, unassigned) [Example 108]	250 to 2000	–	–
CCO[C@H](c1ccc([C@@H](CC)CC(=O)O)cc1Nc1cnc(COC)nc1)C(F)(F)F (single isomer, unassigned) [Example 27]	–	90	–
CC[C@@H](CC(=O)O)c1ccc([C@@H](OC)C(F)(F)F)c(Nc2ccc(C#N)cc2)c1 (single isomer, unassigned) [Example 85]	< 50	–	–
CCO[C@H](c1ccc([C@@H](CC)CC(=O)O)cc1NC(=O)Nc1ccc(Cl)cc1F)C(F)(F)F (single isomer, unassigned) [Example 20]	–	10	–
CCO[C@H](c1ccc([C@H](COC)CC(=O)O)cc1NC(=O)Nc1ccc(Cl)cc1F)C(F)(F)F (single isomer, unassigned) [Example 53]	–	40	–
CCO[C@@H](c1ccc([C@H](COC)CC(=O)O)cc1Nc1cnc(OC)nc1)C(F)(F)F (single isomer, unassigned) [Example 69]	–	620	–
CCO[C@H](c1ccc([C@@H](COC)CC(=O)O)cc1Nc1ccc(Cl)cc1)C(F)(F)F (single isomer, unassigned) [Example 66]	< 50	–	–
CCO[C@@H](c1ccc([C@H](CC)CC(=O)O)cc1Nc1cnc(COC)nc1)C(F)(F)F (single isomer, unassigned) [Example 38]	–	610	–
CCO[C@@H](c1ccc([C@H](CC)CC(=O)O)cc1Nc1cnc(OC)nc1)C(F)(F)F (single isomer, unassigned) [Example 33]	–	30	–
CC[C@@H](CC(=O)O)c1ccc([C@H](OC)C(F)(F)F)c(Nc2ccc(Cl)cc2)c1 (single isomer, unassigned) [Example 84-2]	< 50	–	–
CCOc1ncc(Nc2cc([C@@H](CC)CC(=O)O)ccc2[C@@H](OC)C(F)(F)F)cn1 (single isomer, unassigned) [Example 87]	–	130	–
CC[C@@H](c1ccc([C@@H](COC)CC(=O)O)cc1Nc1ccc(COC)nc1)N1CCOCC1 (single isomer, unassigned) [Example 104]	250 to 2000	–	–
CCc1ncc(Nc2cc([C@H](CC)CC(=O)O)ccc2[C@@H](CC)N2CCOCC2)cn1 (single isomer, unassigned) [Example 119]	–	20	–
CC[C@@H](c1ccc([C@@H](COC)CC(=O)O)cc1Nc1ccc(Cl)cc1)N1CCOCC1 (relative stereo) [Example 105, (S)-3-(3-((4-chlorophenyl)amino)-4-((S)-1-morpholinopropyl)phenyl)-4-methoxybutanoic acid]	< 50	–	–
